Test: Comparative in vitro release of Oligo-3 and Oligo-4 from gold nanoparticles with glutathione, followed by fluorescence
Conditions: PBS, glutathione final concentration 1 mM, Ex: 470, Em: 517 nm
Procedure: To a solution of modified gold nanoparticles prepared in Example 9 in PBS bearing the Oligo-3 or Oligo-4 was added glutathione (final concentration 1 mM). The in vitro release of the oligonucleotides bearing the fluorescein molecule is followed by fluorescence. The fluorescence was recorded at different periods of time. […] Particularly, in the case of Oligo-3, the fluorescence increases fast due to the release of the oligonucleotide from the gold nanoparticle in the presence of glutathione at 1 mM. The fluorescence is quenched when fluorescein is close to the gold nanoparticle, but it increases over time due to the release of the fluorescent oligonucleotide in the presence of glutathione. […] Ex: 470, Em: 517 nm.

Row | Substance | in vitro release of the fluorescein oligonucleotide from gold nanoparticles
1 | Oligo-3: TTTTTTTTTT (SEQ ID NO: 3), fluorescein at position 5′ and the modification herein reported at position 3′ (5' fluorescein; 3' modification; Oligonucleotide sequence as in Oligo-3 and Oligo-4) | release takes place efficiently
2 | Oligo-4: TTTTTTTTTT (SEQ ID NO: 3), fluorescein at 5′, dithiolane group at 3′ but not the disulfide group; comparative (5' fluorescein; 3' dithiolane; Oligonucleotide sequence as in Oligo-3 and Oligo-4) | inefficient release

Source: patent publication US20160075680A1, “MODIFIED SOLID SUPPORT FOR THE SYNTHESIS OF OLIGONUCLEOTIDES” (FUNDACIÓN IMDEA NANOCIENCIA, priority 2013, published 2016)
